Non-standard residues stand in square brackets, D forms with d. Residues, ends and D or L forms follow the SMILES beside them. N(4-F-Bzl)Gly = O=C(O)CNCc1ccc(F)cc1; Gly(N-(CH2)6NH2) = NCCCCCCNCC(=O)O; Gly(N-2-aminoethyl) = NCCNCC(=O)O; Nspe = C[C@H](NCC(=O)O)c1ccccc1; Nphe = O=C(O)CNCc1ccccc1; Nleu = CC(C)CNCC(=O)O; Nlys = NCCCCNCC(=O)O
Tests used:
Leishmania mexicana [1] = test: Antileishmanial activity against axenic amastigote form of Leishmania mexicana MNYC/BZ/62/M379 assessed as parasite viability measured after 1 hr by alamarBlue staining based fluorescence analysis; assay type: functional; details: MNYC/BZ/62/M379, 1 h, read-out: ED50 (the source's name)
Leishmania mexicana [2] = test: Antileishmanial activity against Leishmania mexicana MNYC/BZ/62/M379 promastigotes assessed as parasite viability measured after 1 hr by alamarBlue staining based fluorescence analysis; assay type: functional; details: MNYC/BZ/62/M379, 1 h, read-out: ED50 (the source's name)
[3] = Cytotoxicity against mouse RAW264.7 cells measured after 24 hrs by alamarBlue staining based fluorescence analysis; assay type: cell-based; details: read-out: ED50
Leishmania mexicana [4] = test: Antileishmanial activity against Leishmania mexicana MNYC/BZ/62/M379 amastigotes infected in mouse RAW264.7 cells assessed as parasite viability measured after 24 hrs by alamarBlue staining based fluorescence analysis; assay type: functional

Compound | EC50 (Leishmania mexicana [1]) | EC50 (Leishmania mexicana [2]) | CC50 at 24 h [3] | ED50 (Leishmania mexicana [4])
CC(c1ccccc1)N(CC(=O)N(CCCCN)CC(=O)N(CC(=O)N(CC(=O)N(CCCCN)CC(=O)N(CC(=O)N(CC(N)=O)[C@@H](C)c1ccccc1)[C@@H](C)c1ccccc1)Cc1ccc(F)cc1)Cc1ccc(F)cc1)C(=O)CN(C(=O)CN(CCCCN)C(=O)CN(Cc1ccc(F)cc1)C(=O)CN(Cc1ccc(F)cc1)C(=O)CNCCCCN)[C@@H](C)c1ccccc1 (single isomer, unassigned) | 21 µM | 6 µM | 5 µM | >5 µM
NCCNCC(=O)N(CC(=O)N(CC(=O)N(CCN)CC(=O)N(CC(=O)N(CC(=O)N(CCN)CC(=O)N(CC(=O)N(CC(=O)N(CCN)CC(=O)N(CC(=O)N(CC(N)=O)Cc1ccccc1)Cc1ccccc1)Cc1ccccc1)Cc1ccccc1)Cc1ccccc1)Cc1ccccc1)Cc1ccccc1)Cc1ccccc1 (H-[Gly(N-2-aminoethyl)][Nphe][Nphe][Gly(N-2-aminoethyl)][Nphe][Nphe][Gly(N-2-aminoethyl)][Nphe][Nphe][Gly(N-2-aminoethyl)][Nphe][Nphe]-NH2) | > 100 µM | 21 µM | > 5 µM | >5 µM
C[C@H](c1ccccc1)N(CC(=O)N(CCN)CC(=O)N(CC(=O)N(CC(=O)N(CCN)CC(=O)N(CC(=O)N(CC(=O)N(CCN)CC(=O)N(CC(=O)N(CC(N)=O)[C@@H](C)c1ccccc1)[C@@H](C)c1ccccc1)[C@H](C)c1ccccc1)[C@@H](C)c1ccccc1)[C@H](C)c1ccccc1)[C@@H](C)c1ccccc1)C(=O)CN(C(=O)CNCCN)[C@H](C)c1ccccc1 (stereo in doubt) | 17 µM | 7 µM | 3 µM | >5 µM
NCCCCNCC(=O)N(CC(=O)N(CC(=O)N(CCCCN)CC(=O)N(CC(=O)N(CC(=O)N(CCCCN)CC(=O)N(CC(=O)N(CC(=O)N(CCCCN)CC(=O)N(CC(=O)N(CC(N)=O)Cc1ccccc1)Cc1ccccc1)Cc1ccccc1)Cc1ccccc1)Cc1ccccc1)Cc1ccccc1)Cc1ccccc1)Cc1ccccc1 (H-[Nlys][Nphe][Nphe][Nlys][Nphe][Nphe][Nlys][Nphe][Nphe][Nlys][Nphe][Nphe]-NH2) | > 100 µM | 15 µM |  | 
CC(c1ccccc1)N(CC(=O)N(CCCCN)CC(=O)N(CC(=O)N(CC(=O)N(CCCCN)CC(=O)N(CC(=O)N(CC(N)=O)[C@@H](C)c1ccccc1)Cc1ccc(F)cc1)C(C)c1ccccc1)Cc1ccc(F)cc1)C(=O)CN(Cc1ccc(F)cc1)C(=O)CNCCCCN (single isomer, unassigned) | > 100 µM | 13 µM |  | 
CCCCCNCC(=O)N(CC(=O)N(CC(=O)N(CCCCC)CC(=O)N(CC(=O)N(CC(=O)N(CCCCN)CC(=O)N(CC(=O)N(CC(=O)N(CCCCN)CC(=O)N(CC(=O)N(CC(N)=O)[C@@H](C)c1ccccc1)[C@@H](C)c1ccccc1)C(C)c1ccccc1)[C@@H](C)c1ccccc1)C(C)c1ccccc1)[C@@H](C)c1ccccc1)C(C)c1ccccc1)[C@@H](C)c1ccccc1 (single isomer, unassigned) | 16 µM | 11 µM | 1.7 µM | 1.6 µM
C[C@@H](c1ccccc1)N(CC(N)=O)C(=O)CN(C(=O)CN(CCCCN)C(=O)CN(C(=O)CN(C(=O)CNCCCCN)[C@@H](C)c1ccccc1)[C@@H](C)c1ccccc1)[C@@H](C)c1ccccc1 (H-[Nlys][Nspe][Nspe][Nlys][Nspe][Nspe]-NH2) | > 100 µM | > 100 µM |  | 
NCCCCCCNCC(=O)N(CC(=O)N(CC(=O)N(CCCCCCN)CC(=O)N(CC(=O)N(CC(=O)N(CCCCCCN)CC(=O)N(CC(=O)N(CC(=O)N(CCCCCCN)CC(=O)N(CC(=O)N(CC(N)=O)Cc1ccccc1)Cc1ccccc1)Cc1ccccc1)Cc1ccccc1)Cc1ccccc1)Cc1ccccc1)Cc1ccccc1)Cc1ccccc1 (H-[Gly(N-(CH2)6NH2)][Nphe][Nphe][Gly(N-(CH2)6NH2)][Nphe][Nphe][Gly(N-(CH2)6NH2)][Nphe][Nphe][Gly(N-(CH2)6NH2)][Nphe][Nphe]-NH2) | > 100 µM | 21 µM |  | 
C[C@@H](c1ccccc1)N(CC(N)=O)C(=O)CN(C(=O)CN(CCCCN)C(=O)CN(C(=O)CN(C(=O)CN(CCCCN)C(=O)CN(C(=O)CN(C(=O)CN(CCCCN)C(=O)CN(C(=O)CN(C(=O)CNCCCCN)[C@@H](C)c1ccccc1)[C@@H](C)c1ccccc1)[C@@H](C)c1ccccc1)[C@@H](C)c1ccccc1)[C@@H](C)c1ccccc1)[C@@H](C)c1ccccc1)[C@@H](C)c1ccccc1 (H-[Nlys][Nspe][Nspe][Nlys][Nspe][Nspe][Nlys][Nspe][Nspe][Nlys][Nspe][Nspe]-NH2) | > 100 µM | 8 µM |  | 
C[C@@H](c1ccccc1)N(CC(N)=O)C(=O)CN(C(=O)CN(CCCCCCN)C(=O)CN(C(=O)CN(C(=O)CNCCCCCCN)[C@@H](C)c1ccccc1)[C@@H](C)c1ccccc1)[C@@H](C)c1ccccc1 | > 100 µM | > 100 µM |  | 
CCCCCN(CC(=O)N(CC(=O)N(CC(=O)N(CCCCN)CC(=O)N(CC(=O)N(CC(N)=O)[C@@H](C)c1ccccc1)[C@@H](C)c1ccccc1)C(C)c1ccccc1)[C@@H](C)c1ccccc1)C(=O)CN(C(=O)CN(C(=O)CN(CCCCN)C(=O)CN(C(=O)CN(C(=O)CNCCCCN)[C@@H](C)c1ccccc1)C(C)c1ccccc1)[C@@H](C)c1ccccc1)C(C)c1ccccc1 (single isomer, unassigned) | 15 µM | 10 µM |  | 
CC(C)CN(CC(=O)N(CC(N)=O)[C@@H](C)c1ccccc1)C(=O)CN(CCCCN)C(=O)CN(C(=O)CN(CC(C)C)C(=O)CN(CCCCN)C(=O)CN(C(=O)CN(CC(C)C)C(=O)CNCCCCN)[C@@H](C)c1ccccc1)[C@@H](C)c1ccccc1 (H-[Nlys][Nleu][Nspe][Nlys][Nleu][Nspe][Nlys][Nleu][Nspe]-NH2) | > 100 µM | > 100 µM |  | 
C[C@@H](c1ccccc1)N(CC(N)=O)C(=O)CN(C(=O)CN(CCCCN)C(=O)CN(Cc1ccc(F)cc1)C(=O)CN(Cc1ccc(F)cc1)C(=O)CNCCCCN)[C@@H](C)c1ccccc1 | > 100 µM | > 100 µM |  | 
NCCCCNCC(=O)N(CC(=O)N(CC(=O)N(CCCCN)CC(=O)N(CC(=O)N(CC(N)=O)Cc1ccccc1)Cc1ccccc1)Cc1ccccc1)Cc1ccccc1 (H-[Nlys][Nphe][Nphe][Nlys][Nphe][Nphe]-NH2) | > 100 µM | > 100 µM |  | 
CC(c1ccccc1)N(CC(=O)N(CCN)CC(=O)N(CC(=O)N(CC(=O)N(CCN)CC(=O)N(CC(=O)N(CC(N)=O)[C@@H](C)c1ccccc1)[C@@H](C)c1ccccc1)C(C)c1ccccc1)[C@@H](C)c1ccccc1)C(=O)CN(C(=O)CNCCN)C(C)c1ccccc1 (single isomer, unassigned) | > 100 µM | 10 µM |  | 
NCCCCNCC(=O)N(CC(=O)N(CC(=O)N(CCCCN)CC(=O)N(CC(=O)N(CC(N)=O)Cc1ccc(F)cc1)Cc1ccc(F)cc1)Cc1ccc(F)cc1)Cc1ccc(F)cc1 (H-[Nlys][N(4-F-Bzl)Gly][N(4-F-Bzl)Gly][Nlys][N(4-F-Bzl)Gly][N(4-F-Bzl)Gly]-NH2) | > 100 µM | > 100 µM |  | 
C[C@@H](c1ccccc1)N(CC(N)=O)C(=O)CN(C(=O)CN(CCCCCCN)C(=O)CN(C(=O)CN(C(=O)CN(CCCCCCN)C(=O)CN(C(=O)CN(C(=O)CN(CCCCCCN)C(=O)CN(C(=O)CN(C(=O)CNCCCCCCN)[C@@H](C)c1ccccc1)[C@@H](C)c1ccccc1)[C@@H](C)c1ccccc1)[C@@H](C)c1ccccc1)[C@@H](C)c1ccccc1)[C@@H](C)c1ccccc1)[C@@H](C)c1ccccc1 (H-[Gly(N-(CH2)6NH2)][Nspe][Nspe][Gly(N-(CH2)6NH2)][Nspe][Nspe][Gly(N-(CH2)6NH2)][Nspe][Nspe][Gly(N-(CH2)6NH2)][Nspe][Nspe]-NH2) | > 100 µM | 11 µM |  | 
C[C@@H](c1ccccc1)N(CC(N)=O)C(=O)CN(C(=O)CN(CCCCCCN)C(=O)CN(C(=O)CN(C(=O)CN(CCCCCCN)C(=O)CN(C(=O)CN(C(=O)CNCCCCCCN)[C@@H](C)c1ccccc1)[C@@H](C)c1ccccc1)[C@@H](C)c1ccccc1)[C@@H](C)c1ccccc1)[C@@H](C)c1ccccc1 (H-[Gly(N-(CH2)6NH2)][Nspe][Nspe][Gly(N-(CH2)6NH2)][Nspe][Nspe][Gly(N-(CH2)6NH2)][Nspe][Nspe]-NH2) | > 100 µM | 25 µM |  | 
CC(C)CN(CC(=O)N(CC(N)=O)[C@@H](C)c1ccccc1)C(=O)CN(CCCCN)C(=O)CN(C(=O)CN(CC(C)C)C(=O)CN(CCCCN)C(=O)CN(C(=O)CN(CC(C)C)C(=O)CN(CCCCN)C(=O)CN(C(=O)CN(CC(C)C)C(=O)CNCCCCN)[C@@H](C)c1ccccc1)[C@@H](C)c1ccccc1)[C@@H](C)c1ccccc1 (H-[Nlys][Nleu][Nspe][Nlys][Nleu][Nspe][Nlys][Nleu][Nspe][Nlys][Nleu][Nspe]-NH2) | > 100 µM | > 100 µM |  | 
NCCCCNCC(=O)N(CC(=O)N(CC(=O)N(CCCCN)CC(=O)N(CC(=O)N(CC(=O)N(CCCCN)CC(=O)N(CC(=O)N(CC(N)=O)Cc1cccc(F)c1)Cc1cccc(F)c1)Cc1cccc(F)c1)Cc1cccc(F)c1)Cc1cccc(F)c1)Cc1cccc(F)c1 | > 100 µM | 17 µM |  | 
COc1ccc(CN(CC(N)=O)C(=O)CN(Cc2ccc(OC)cc2)C(=O)CN(CCCCN)C(=O)CN(Cc2ccc(OC)cc2)C(=O)CN(Cc2ccc(OC)cc2)C(=O)CN(CCCCN)C(=O)CN(Cc2ccc(OC)cc2)C(=O)CN(Cc2ccc(OC)cc2)C(=O)CNCCCCN)cc1 | > 100 µM | > 100 µM |  | 
CC(c1ccccc1)N(CC(=O)N(CCCCN)CC(=O)N(CC(=O)N(CC(=O)N(CCCCN)CC(=O)N(CC(=O)N(CC(N)=O)[C@@H](C)c1ccccc1)[C@@H](C)c1ccccc1)Cc1ccc(F)cc1)Cc1ccc(F)cc1)C(=O)CN(C(=O)CNCCCCN)[C@@H](C)c1ccccc1 (single isomer, unassigned) | > 100 µM | 13 µM |  | 
C[C@H](c1ccccc1)N(CC(N)=O)C(=O)CN(C(=O)CN(CCCCN)C(=O)CN(C(=O)CN(C(=O)CN(CCCCN)C(=O)CN(C(=O)CN(C(=O)CNCCCCN)[C@H](C)c1ccccc1)[C@@H](C)c1ccccc1)[C@H](C)c1ccccc1)[C@@H](C)c1ccccc1)[C@H](C)c1ccccc1 (stereo in doubt) | > 100 µM | 15 µM |  | 
C[C@@H](c1ccccc1)N(CC(N)=O)C(=O)CN(C(=O)CN(CCN)C(=O)CN(C(=O)CN(C(=O)CNCCN)[C@@H](C)c1ccccc1)[C@@H](C)c1ccccc1)[C@@H](C)c1ccccc1 | > 100 µM | > 100 µM |  | 

Source: ChEMBL document CHEMBL3817808, “Enlarging the chemical space of anti-leishmanials: a structureactivity relationship study of peptoids against Leishmania mexicana, a causative agent of cutaneous leishmaniasis” (Medchemcomm, 2016)
